# Measurements published in patent publication US20030224978A1, “Compounds and methods for modulating apoptosis” (McGill University, priority 1996, published 2003).
# pIC50: −log10 of the molar value. “Also recorded” adds a separate entry of the source.
# What was measured:
# HUVEC = type: cell-based, human; conditions: 3 h
# WI-38 = type: cell-based, human; conditions: 3 h
# Procedure: (§1) N-Ac-CHAVC-NH2 (SEQ ID NO:10) and the control peptide N-Ac-CHGVC-NH2 (SEQ ID NO:20) were evaluated for possible cytotoxic effects on human microvascular endothelial (HMVEC; Clonetics), human umbilical vein endothelial (HUVEC; ATCC #CRL-1730), IAFp2 (human fibroblast cell line; Institute Armand-Frapier, Montreal, Quebec), WI-38 (human fibroblast cell line; ATCC #CCL-75), MDA-MB231 (human breast cancer cell line; ATCC #HTB-26), and PC-3 (human prostate cancer cell line; ATCC #CRL-1435) cells utilizing the MTT assay (Plumb et al., Cancer Res. 49:4435-4440, 1989). Neither of the peptides was cytotoxic at concentrations up to and including 100 μM. Similarly, neither of the peptides was capable of inhibiting the proliferation of the above cell lines at concentrations up to 100 μM, as judged by ^3H-thymidine incorporation assays.
# IAFp2 = type: cell-based, human; conditions: 3 h
# Procedure: as §1
# PC-3 = type: cell-based, human; conditions: 3 h
# Procedure: as §1
# HMVEC = type: cell-based, human; conditions: 3 h
# Procedure: as §1
# NRK cells = assay: Disruption of normal rat kidney (NRK) cell adhesion and E-cadherin immunostaining; type: cell-based; conditions: 1 mg/mL, 48 hours
# Procedure: Within another such assay, the effect of a modulating agent on normal rat kidney (NRK) cells may be evaluated. According to a representative procedure, NRK cells (ATCC #1571-CRL) may be plated at 10-20,000 cells per 35 mm tissue culture flasks containing DMEM with 10% FCS and sub-cultured periodically (Laird et al., J. Cell Biol. 131:1193-1203, 1995). Cells may be harvested and replated in 35 mm tissue culture flasks containing 1 mm coverslips and incubated until 50-65% confluent (24-36 hours). At this time, coverslips may be transferred to a 24-well plate, washed once with fresh DMEM and exposed to modulating agent at a concentration of, for example, 1 mg/mL for 24 hours. Fresh modulating agent may then be added, and the cells left for an additional 24 hours. Cells may be fixed with 100% methanol for 10 minutes and then washed three times with PBS. Coverslips may be blocked for 1 hour in 2% BSA/PBS and incubated for a further 1 hour in the presence of mouse anti-E-cadherin antibody (Transduction Labs, 1:250 dilution). Primary and secondary antibodies may be diluted in 2% BSA/PBS. Following incubation in the primary antibody, coverslips may be washed three times for 5 minutes each in PBS and incubated for 1 hour with donkey anti-mouse antibody conjugated to fluorescein (diluted 1:200). Following further washes in PBS (3×5 min) coverslips can be mounted and viewed by confocal microscopy.
# In the absence of modulating agent, NRK cells form characteristic tightly adherent monolayers with a cobblestone morphology in which cells display a polygonal shape. NRK cells that are treated with a modulating agent that disrupts E-cadherin mediated cell adhesion may assume a non-polygonal and elongated morphology (i.e., a fibroblast-like shape) within 48 hours of treatment with 1 mg/mL of modulating agent. Gaps appear in confluent cultures of such cells. In addition, 1 mg/mL of such a modulating agent reproducibly induces a readily apparent reduction in cell surface staining of E-cadherin, as judged by immunofluorescence microscopy (Laird et al., J. Cell Biol. 131:1193-1203, 1995), of at least 75% within 48 hours.
# NRK cells (ATCC #1571-CRL) were plated at 10-20,000 cells per 35 mm tissue culture flasks containing DMEM with 10% FCS and sub-cultured periodically (Laird et al., J. Cell Biol. 131:1193-1203, 1995). Cells were harvested and replated in 35 mm tissue culture flasks containing […] coverslips and incubated until 50-65% confluent (24-36 hours). At this time, coverslips were transferred to a 24-well plate, washed once with fresh DMEM and exposed to cyclic peptide solutions (N-Ac-CHAVC-NH2 (SEQ ID NO:10) and N-Ac-CHGVC-NH2 (SEQ ID NO:20)) at a concentration of 1 mg/mL for 24 hours. Fresh peptide solutions were then added and the cells were left for an additional 24 hours. […]
# Melanoma ME 115 cells = assay: Disruption of melanoma cell adhesion, pan-cadherin immunostaining; type: cell-based, human; conditions: 500 μg/mL, 48 hours
# Procedure: Melanoma ME 115 cells (kindly provided by Meenhard Herlyn, Wistar Institute, Philadelphia, Pa.) were plated on glass coverslips and cultured for 24 hours in 50% keratinocyte growth medium (Clonetics, San Diego, Calif.) and 50% L15. Fresh medium containing the cyclic peptides (final concentration 500 μg/mL media) N-Ac-CHAVC-NH2 (SEQ ID NO:10) or N-Ac-CHGVC-NH2 (SEQ ID NO:20) was then added. Following 24 hours of culture in the presence of the peptides, the medium was removed and fresh medium containing the peptides was added. The cells were fixed 24 hours later with cold methanol and stored in phosphate buffered saline (PBS).
# Coverslips were blocked for 1 hour in 3% ovalbumin/PBS and incubated for a further 1 hour in the presence of rabbit pan-cadherin antibody (Sigma Chemical Co., St. Louis, Mo.) diluted 1:500. Primary and secondary antibodies were diluted in PBS containing 6% normal goat serum. Following incubation in the primary antibody, coverslips were washed 3 times for 5 minutes each in PBS and incubated for 1 hour in goat anti-rabbit immunoglobulin G conjugated to fluorescein (Kiekegard and Perry, South San Francisco, Calif.) diluted 1:100. Following a further wash in PBS (3×5 minutes) coverslips were mounted in Vectashield (Vector Labs, Burlingame, Calif.) and viewed with a Zeiss infinity corrected microscope.
SMILES,pIC50 (HUVEC),pIC50 (WI-38),pIC50 (IAFp2),pIC50 (PC-3),pIC50 (HMVEC),E-cadherin expression in NRK cells (immunofluorescence) (NRK cells),effect on NRK cell adhesion (NRK cells),cadherin staining in melanoma ME115 cells (Melanoma ME 115 cells),effect on melanoma cell adhesion (Melanoma ME 115 cells)
"CC(=O)N[C@H]1CSSC[C@@H](C(N)=O)NC(=O)[C@H](C(C)C)NC(=O)CNC(=O)[C@H](Cc2c[nH]cn2)NC1=O [N-Ac-CHGVC-NH2, reference compound]",< 4.00,< 4.00,< 4.00,< 4.00,< 4.00,expressed E-cadherin,had no affect on cell adhesion,displayed cadherin staining all over the cell membrane,–
"CC(=O)N[C@H]1CSSC[C@@H](C(N)=O)NC(=O)[C@H](C(C)C)NC(=O)[C@H](C)NC(=O)[C@H](Cc2c[nH]cn2)NC1=O [N-Ac-CHAVC-NH2, N-Ac-Cys-His-Ala-Val-Cys-NH2]",< 4.00,< 4.00,< 4.00,< 4.00,< 4.00,greatly reduced levels of E-cadherin,disrupted NRK cell adhesion; also recorded: retract from one another,absence of cell membrane staining and the appearance of bright intracellular vesicular staining; also recorded: cadherin is localized in intracellular vesicles,disrupts melanoma cell adhesion
